One experiment concerns the target T1, 11β-HSD1 (Homo sapiens, UniProt P28845).
T1 construct: host or cells: human subjects in vivo
Particulars: healthy candidates and type 2 diabetic patients, but not the obese; cited from earlier work.

The target of experiment [1] is T2, human-derived 11β-HSD1 (h11β-HSD1) enzyme (Homo sapiens, UniProt P28845).
T2 construct: expressed in transfected cells; host or cells: HEK-293 cells, transfected with Fugene 6
Put plainly: Cell assay on 11β-HSD1 (HEK-293 cells overexpressing h11β-HSD1, cortisone to cortisol, cortisol ELISA). The experiment is classed as cell-based. The following applies: HEK293, HEK-293 cells transfected with h11β-HSD1; for inhibition at 10 µM: 10 μM compound, read-out: hHSD1 inhibiting activity, % inhibition at 10 μM; for inhibition at 100 µM: 100 μM compound, read-out: hHSD1 inhibiting activity, % inhibition at 100 μM. How it is done:
In order to investigate inhibitory effects of the compounds according to the present invention on activity of human-derived 11β-HSD1 (h11β-HSD1) enzyme, the following experiment was performed.
To assay the activity of the 11β-HSD1 enzyme, a recombinant DNA having h11β-HSD1 gene was introduced into an animal cell to induce overexpression of the enzyme [Arampatzis, S. J Mol. Endocrinol. […] First, HEK-293 cells were incubated using a cell incubator until they reached 70-80% confluency on a surface of the container. The recombinant DNA having h11β-HSD1 gene was mixed with Fugene 6, followed by reaction at room temperature for 1 hour. The resulting material was used to treat the cells, and thus DNA was injected into the cells. The next day, the cell supernatant was removed, followed by supplement of fresh medium, and then the cells were further incubated for 24 hours in the cell incubator.
When the cells were incubated at 70-80% confluency, the cells were detached with trypsin, and the number of cells was measured by using a Hemacytometer. The incubated liquid was diluted to contain 20,000 cells/ml, and 100 μl of the diluted liquid was plated onto each well of the 96-well plate. Following incubation for 24 hours, the compound dissolved in DMSO was diluted to 1/100 by the incubated liquid. 100 μl of the resulting compound-diluted liquid was dispensed into each well, and then incubated for 30 minutes.
The quantitative assay of cortisol generated in this reaction was performed by using a system provided from Assay Designs Inc. The resultant enzyme reactant was added to the plate coated with anti-mouse IgG, and then a specific antibody binding to the cortisol and alkaline phosphatase-bound cortisol are together input thereto, followed by reaction at room temperature for 2 hours. The contents in the wells after reaction were thrown away, and then washing was performed with a buffer solution consisting of surfactant and tris-buffered saline three times. After that, a p-nitrophenyl phosphate solution, which is a substrate for the alkaline phosphatase, was input thereto for coloring reaction, followed by reaction for 1 hour, and then the light absorbance at 405 nm was measured by using a plate reader.
On the technique in general: An ELISA detects its analyte on a solid surface through an enzyme-linked reagent.

The inhibition is the share of the control response that was lost under treatment.

T2 sequence (P28845 whole entry): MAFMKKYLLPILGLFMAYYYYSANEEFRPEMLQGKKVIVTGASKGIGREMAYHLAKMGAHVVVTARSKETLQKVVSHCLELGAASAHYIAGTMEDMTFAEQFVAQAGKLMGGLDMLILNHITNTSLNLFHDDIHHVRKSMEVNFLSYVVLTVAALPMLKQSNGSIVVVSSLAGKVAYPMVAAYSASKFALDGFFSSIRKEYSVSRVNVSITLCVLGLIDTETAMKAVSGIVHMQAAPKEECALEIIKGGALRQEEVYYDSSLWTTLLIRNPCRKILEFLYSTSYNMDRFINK
T1 sequence (P28845 whole entry): as above

With `CC1(C)[C@@H](OC(=O)CCC(=O)O)CC[C@]2(C)[C@H]3C(=O)C=C4[C@@H]5C[C@@](C)(C(=O)O)CC[C@]5(C)CC[C@@]4(C)[C@]3(C)CC[C@@H]12` [Carbenoxolone], the “effect on insulin sensitivity” value on 11β-HSD1 is recorded as “improves insulin sensitivity”. On to `O=C(N[C@H]1C2CC3CC1C[C@](O)(C3)C2)c1cccc(N2CCC(c3ccccc3)CC2)n1` [Example 47], for which, in experiment [1], the inhibition at 10 µM was determined as 36% and the inhibition at 100 µM was 96%. Regarding `O=C(N[C@H]1C2CC3CC1C[C@](O)(C3)C2)c1cccc(N2CCc3ccccc3C2)n1` [Example 60], in experiment [1], the inhibition at 10 µM was determined as 68% and the inhibition at 100 µM amounted to 82%. The like results for `CC1CCCCN1c1cccc(C(=O)N[C@H]2C3CC4CC2C[C@](O)(C4)C3)n1` (stereo partly drawn) [Example 61] were, in that order, 68% and 83%. The like results for `CS(=O)(=O)c1ccc(N2CCN(c3cccc(C(=O)N[C@H]4C5CC6CC4C[C@](O)(C6)C5)n3)CC2)cc1` [Example 77, N-((E)-5-hydroxyadamantan-2-yl)-6-(4-(4-(methylsulfonyl)phenyl)piperazin-1-yl)picolinamide] were, in that order, 73% and 87%.

Consider `O=C(N[C@H]1C2CC3CC1C[C@](O)(C3)C2)c1cccc(N2CCN(c3ccc(F)cn3)CC2)n1` [Example 87], for which, in experiment [1], the inhibition at 10 µM was determined as 40% and the inhibition at 100 µM was found to be 79%. Consider `Cc1ccc(N2CCN(c3cccc(C(=O)N[C@H]4C5CC6CC4C[C@](O)(C6)C5)n3)CC2)nc1` [Example 88], for which, in experiment [1], the inhibition at 10 µM was 40% and the inhibition at 100 µM was 84%.

On to `O=C(N[C@H]1C2CC3CC1C[C@](O)(C3)C2)c1cccc(N2CCC(c3ccc(F)cn3)CC2)n1` [Example 97], for which, in experiment [1], the inhibition at 10 µM was determined as 58% and the inhibition at 100 µM was found to be 77%. For `Cc1ccc(C2CCN(c3cccc(C(=O)N[C@H]4C5CC6CC4C[C@](O)(C6)C5)n3)CC2)nc1` [Example 98] the same measures were 38% and 78%. Regarding `COc1ccc(N2CCN(c3cccc(C(=O)N[C@H]4C5CC6CC4C[C@](O)(C6)C5)n3)[C@H](C)C2)nc1` [Example 118], in experiment [1], the inhibition at 10 µM came out at 64% and the inhibition at 100 µM was found to be 84%. For `COc1ccc(N2CCN(c3cccc(C(=O)N[C@H]4C5CC6CC4C[C@](O)(C6)C5)n3)[C@H](C)C2)cn1` [Example 119], in experiment [1], the inhibition at 10 µM turned out to be 65% and the inhibition at 100 µM was 81%. As to `COc1ccc(N2CCCN(c3cccc(C(=O)N[C@H]4C5CC6CC4C[C@](O)(C6)C5)n3)CC2)c(F)c1` [Example 124], in experiment [1], the inhibition at 10 µM is 54% and the inhibition at 100 µM stood at 85%. As for `C[C@@H]1CN(c2ccc(N)nc2)CCN1c1cccc(C(=O)N[C@H]2C3CC4CC2C[C@](O)(C4)C3)n1` [Example 125, 6-((R)-4-(6-aminopyridin-3-yl)-2-methylpiperazin-1-yl)-N-((E)-5-hydroxyadamantan-2-yl)picolinamide], in experiment [1], the inhibition at 10 µM came to 48% and the inhibition at 100 µM turned out to be 79%. Consider `COc1ccc(N2CCN(c3cccc(C(=O)N[C@H]4C5CC6CC4C[C@](O)(C6)C5)n3)[C@H](C)C2)cc1C(N)=O` [Example 150], for which, in experiment [1], the inhibition at 10 µM stood at 76% and the inhibition at 100 µM was determined as 87%. Turning to `CNC(=O)c1cc(N2CCN(c3cccc(C(=O)N[C@H]4C5CC6CC4C[C@](O)(C6)C5)n3)[C@H](C)C2)ccc1OC` [Example 151], in experiment [1], the inhibition at 10 µM is 75% and the inhibition at 100 µM amounted to 85%. As to `C[C@@H]1CN(c2ccc(C(C)(C)O)cc2)CCN1c1cccc(C(=O)N[C@H]2C3CC4CC2C[C@](O)(C4)C3)n1` [Example 173, N-((E)-5-hydroxyadamantan-2-yl)-6-((R)-4-(4-(2-hydroxypropan-2-yl)phenyl)-2-methylpiperazin-1-yl)picolinamide], in experiment [1], the inhibition at 10 µM turned out to be 81% and the inhibition at 100 µM was determined as 87%. For `C[C@@H]1CN(c2ccc(OCC(N)=O)c(Cl)c2)CCN1c1cccc(C(=O)N[C@H]2C3CC4CC2C[C@](O)(C4)C3)n1` [Example 190, 6-((R)-4-(4-(2-amino-2-oxoethoxy)-3-chlorophenyl)-2-methylpiperazin-1-yl)-N-((E)-5-hydroxyadamantan-2-yl)picolinamide] the same measures were 76% and 89%. On to `C[C@@H]1CN(CC(C)(C)O)CCN1c1cccc(C(=O)N[C@H]2C3CC4CC2C[C@](O)(C4)C3)n1` [Example 192, 6-((R)-4-(2-hydroxy-2-methylpropyl)-2-methylpiperazin-1-yl)-N-((E)-5-hydroxyadamantan-2-yl)picolinamide], for which, in experiment [1], the inhibition at 10 µM was 41% and the inhibition at 100 µM was determined as 85%. Turning to `C[C@@H]1CN(C2CC2)CCN1c1cccc(C(=O)N[C@H]2C3CC4CC2C[C@](O)(C4)C3)n1` [Example 196, 6-((R)-4-cyclopropyl-2-methylpiperazin-1-yl)-N-((E)-5-hydroxyadamantan-2-yl)picolinamide], in experiment [1], the inhibition at 10 µM stood at 64% and the inhibition at 100 µM is 86%. Consider `C[C@@H]1CN(C2CCN(S(C)(=O)=O)CC2)CCN1c1cccc(C(=O)N[C@H]2C3CC4CC2C[C@](O)(C4)C3)n1` [Example 201, N-((E)-5-hydroxyadamantan-2-yl)-6-((R)-2-methyl-4-(1-(methylsulfonyl)piperidin-4-yl)piperazin-1-yl)picolinamide], for which, in experiment [1], the inhibition at 10 µM worked out at 40% and the inhibition at 100 µM stood at 78%. Take `C[C@@H]1CN(S(C)(=O)=O)CCN1c1cccc(C(=O)N[C@H]2C3CC4CC2C[C@](O)(C4)C3)n1` [Example 204]: in experiment [1], the inhibition at 10 µM came out at 41% and the inhibition at 100 µM came to 76%.

Take `COc1ccc(N2CCN(c3nccc(C(=O)N[C@H]4C5CC6CC4C[C@](O)(C6)C5)n3)[C@H](C)C2)c(F)c1` [Example 231]: in experiment [1], the inhibition at 10 µM was 42% and the inhibition at 100 µM was 78%. The like results for `C[C@H]1CN(c2ccc(S(C)(=O)=O)cc2F)CCN1c1nccc(C(=O)N[C@H]2C3CC4CC2C[C@](O)(C4)C3)n1` [Example 284] were, in that order, 56% and 86%.

The values above are taken from patent US9096571B2, “Picolinamide and pyrimidine-4-carboxamide compounds, process for preparing and pharmaceutical composition comprising the same” (SK CHEMICALS CO., LTD., priority 2010, dated 2015).
